In article PMC12040169 (PLOS Biology, 2025):

Assay: in vitro
Conditions: human, hela cells, % viability

In order of falling viability at 28.5 h, 10 µM:
1. COCCn1cnnc1CCNC(=O)Cc1cccc(O)c1 [CBK307322]  112%
2. NC(=O)CN1C(=O)[C@@H]2CCCN2C(=O)c2ccccc21 [CBK283090]  110%
3. CCN(NC(=O)c1ccccc1-n1cccc1)c1ccc(C)cc1 [CBK161507]  110%
4. O=C1N=C(NC2CC3CCC2C3)SC12CCCO2 (stereo not drawn) [CBK116312]  110%
5. c1ccc(OCCOc2ccc(N3CCNCC3)nn2)cc1 [CBK022577F]  109%
6. Clc1ccc(COc2ccc(/C=N/Nc3nc(N4CCOCC4)nc(N4CCOCC4)n3)cc2)c(Cl)c1 [CBK262061]  103%
7. CC1CCc2c(sc(NC(=S)NC(=O)c3cc4ccccc4o3)c2C#N)C1 (stereo not drawn) [CBK266319]  101%
8. CSc1ccc(-c2nc(NC(=O)C(C)C)cc3cccnc23)cc1 [CBK081262]  100%
9. O=c1[nH]c(=O)c2ccn([C@H]3C[C@@H](O)[C@@H](CO)O3)c2[nH]1 [CBK201331]  99%
10. COc1ncc(-c2nccnc2N2CCN(C)CC2)c(OC)n1 [CBK036595]  98.7%
11. Cc1ccc(SCc2ccc(C(=O)NCc3cccnc3)cc2)cc1 [CBK268063]  96.9%
12. Cc1[nH]c2ccccc2c1-c1csc(-c2ccncc2)n1 [CBK264371]  96.8%
13. CC1SC2(C(=O)Nc3ccccc32)N(c2ccc(F)cc2)C1=O (stereo not drawn) [CBK093463]  96.8%
14. O=C(O)COc1ccccc1/C=N\N1CCN(Cc2ccccc2Cl)CC1 [CBK020891]  96.7%
15. O=C(O)c1cccc(Cn2ccc3c(F)cccc32)c1 [CBK003453]  95.9%
16. COc1ccc(NC(=O)Cn2cnc3c2c(=O)n(C)c(=O)n3C)cc1Cl [CBK134216]  95.9%
17. CC(C)(C)OC(=O)N1CCCC(C(=O)Nc2ccccn2)C1 (stereo not drawn) [CBK304524]  95.4%
18. CCC(O)CNc1ccc(C(=O)N2CCC(N3CCOCC3)CC2)cn1 (stereo not drawn) [CBK306865]  95.1%
19. O=C(c1cnc2cc(C(F)(F)F)ccc2c1O)N1CCN(c2ccccn2)CC1 [CBK107431]  94.8%
20. O=C(NC1CC1)C1(Cc2ccccc2-c2ccncc2)CCOCC1 [CBK284785]  94.1%
21. Cc1cc2c(N3CCCC(NS(C)(=O)=O)C3)nccc2o1 (stereo not drawn) [CBK306464]  93.4%
22. Clc1cc2nc(SCCc3cnccn3)c(N3CCCC3)nc2cc1Cl [CBK103700]  93.1%
23. O=C(NCCc1c[nH]cn1)c1ccccc1-n1cccc1 [CBK161000]  92.4%
24. CN(C)CCCNC=C1C(=O)CC(C)(C)CC1=O [CBK262043]  92.2%
25. CN1C[C@@H](NC(=O)c2ccc(C#N)cc2)C[C@H]1c1nc(-c2ccc(F)cc2)no1 [CBK288865]  92.1%
26. O=C(O)C1Nc2ccc(Br)cc2C2C=CCC12 (stereo not drawn) [CBK026482]  92.1%
27. COc1cc(OC)cc(-c2c(C)ncnc2OC)c1 [CBK306765]  91.4%
28. Cn1c(CN2CCN(C3CCCCC3)C(=O)C2)nc2ccccc21 [CBK281893]  90.9%
29. COc1ccc(-n2ncc3c(N4CCN(Cc5ccccc5)CC4)ncnc32)cc1 [CBK265879]  88.8%
30. Cc1nnnn1-c1ccc(CC(=O)N2CCc3sccc3C2c2ccco2)cc1 (stereo not drawn) [CBK285705]  88.2%
31. COc1cnc(-c2cc(Cl)cc(Cl)c2)c(NC(=O)c2ccsc2)n1 [CBK145340]  87.8%
32. CCc1cc(Br)ccc1S(=O)(=O)Nc1cccc2cccnc12 [CBK045012]  87.8%
33. COc1cccc(-c2cnc(N(C)C)nc2C2CCCN2Cc2ccc3ncccc3c2)c1 (stereo not drawn) [CBK286251]  85.5%
34. CC(=O)N1CCc2c([nH]c3ccccc23)[C@@]12CCN(Cc1ccc(F)cc1)C2 [CBK074955]  83%
35. COc1ccccc1-c1nccnc1OCc1cccc(OC)c1OC [CBK106825]  81.2%
36. Cn1c(=O)c2c(nc(CN3CCN(C(=O)c4ccco4)CC3)n2CCc2ccccc2)n(C)c1=O [CBK269278]  80.6%
